Results reported in publication PMC5557574 (Critical Care, 2017).
Read-outs that look alike come from different tables or passages of the source. Positions of bridges follow the written chain, without caps; N, C: chain ends. Non-standard residues stand in square brackets, D forms with d. Residues, ends and D or L forms follow the SMILES beside them. Orn(iPr) = CC(C)NCCC[C@H](N)C(=O)O; Aad = N[C@@H](CCCC(=O)O)C(=O)O

What was measured:
[1] = cited from earlier work
[2] = Pharmacokinetics in septic shock patients, two-compartment population pharmacokinetic model; type: in vivo, human; conditions: for Initial elimination half-life / Time to steady state / clearance / Vd / half-life: mean (SD), SD; for clearance / Vd / half-life: human, in vivo, intravenous; for clearance: read-out: Clearance (total systemic) (converted); for Vd: read-out: Steady state volume; for half-life: read-out: Terminal elimination half-life (converted)
Experimental: Because the study drug infusion was administered according to need, the pharmacokinetic parameters steady-state concentration, total systemic clearance, distribution volume at steady state, and half-life were calculated by modeling using a two-compartment population pharmacokinetic model with random subject effects on clearance and distribution volume using WinNonlin®Pro (Pharsight Corp., Cary, NC, USA). Actual blood sampling time points were used for the calculations.
Data are generated by modelling the concentration data available from all subjects. Mean (SD)

[3] = tested on: patients in early septic shock; assay: Safety: treatment-emergent adverse events in the phase IIa trial; type: in vivo, human
Experimental: Secondary endpoints included pharmacodynamics, pharmacokinetics, safety (vital signs, central venous pressure, central venous oxygen saturation, electrocardiographic and cardiac function, respiratory function, clinical chemistry, hematology, hemostasis, and urinalysis), organ dysfunction, an indirect measure of vascular leakage (i.e., fluid balance), and morbidity. Treatment-emergent adverse events (occurrence from start of study drug to 48 h after infusion was stopped) were collated and evaluated. Morbidity and organ dysfunction were evaluated by time course of Sequential Organ Failure Assessment (SOFA) scores; days alive and free of organ dysfunction (using SOFA); proportion of patients off all vasopressors; days alive and out of intensive care unit (ICU); days alive and free of vasopressors; corticosteroids for sepsis treatment, dialysis, or mechanical ventilation at days 7, 14, and 28; ICU and hospital (up to day 28) lengths of stay; and plasma C-reactive protein (CRP), tumor necrosis factor (TNF)-α, interleukin (IL)-6, IL-10, and IL-1ra levels.

healthy subjects = tested on: healthy subjects; design: method as in Ferring Pharmaceuticals A/S, unpublished data; conditions: 30 healthy subjects, infusion rates up to 3.0 ng/kg/minute for 6 h; ref Ferring Pharmaceuticals A/S, unpublished data; cited from earlier work
patients = conditions: 30 patients, infusion rates of 3.75 ng/kg/minute and higher; ref Ferring Pharmaceuticals A/S, unpublished data; cited from earlier work
[4] = design: method as in Ferring Pharmaceuticals, unpublished data; conditions: healthy subjects; ref Ferring Pharmaceuticals, unpublished data; cited from earlier work
[5] = Selepressin 2.5 ng/kg/minute (n = 19), possibly or probably related
[6] = Selepressin 3.75 ng/kg/minute (n = 2), possibly or probably related

terlipressin [reference compound]
Half-life (qualitative) ([1]; in vivo): long half-life

CC[C@H](C)[C@@H]1NC(=O)[C@H](Cc2ccccc2)NC(=O)[C@@H](N)CSSC[C@@H](C(=O)N2CCC[C@H]2C(=O)N[C@@H](CCCNC(C)C)C(=O)NCC(N)=O)NC(=O)[C@H](CC(N)=O)NC(=O)[C@H](CCCC(N)=O)NC1=O [selepressin] (H-CFI[Aad](NH2)NCP[Orn(iPr)]G-NH2; disulfide 1-6)
Half-life (qualitative, compared with vasopressin and terlipressin) [1]: intermediate
Initial distribution/elimination phase half-life [2]: approximately 10 minutes
Initial elimination half-life ([2]; 1.25 ng/kg.min, N=10, modelled): 0.18 (0.09) h
Time to steady state ([2]; 1.25 ng/kg.min, N=10, modelled): 7.6 (2.8) h
Initial elimination half-life ([2]; 2.5 ng/kg.min, N=17, modelled): 0.17 (0.06) h
Time to steady state ([2]; 2.5 ng/kg.min, N=17, modelled): 7.0 (2.3) h
Terminal half-life ([2]; both dose groups): 2.5 h
Time to steady-state concentration ([2]; both infusion rates (1.25 and 2.5)): approximately 7 h
clearance ([2]; 1.25 ng/kg.min, N=10, modelled): 167 mL/min
Vd ([2]; 1.25 ng/kg.min, N=10, modelled): 25.5 L
half-life ([2]; 1.25 ng/kg.min, N=10, modelled): 2.5 h
clearance ([2]; 2.5 ng/kg.min, N=17, modelled): 218 mL/min
Vd ([2]; 2.5 ng/kg.min, N=17, modelled): 31.2 L
half-life ([2]; 2.5 ng/kg.min, N=17, modelled): 2.7 h
Any severe TEAE: E (events) ([3]; 1.25 ng/kg.min N=10): 8
Any severe TEAE: N (%) ([3]; 1.25 ng/kg.min N=10): 3 (30)
Severe TEAE Acute respiratory distress syndrome: E (events) ([3]; 1.25 ng/kg.min N=10): 1
Severe TEAE Acute respiratory distress syndrome: N (%) ([3]; 1.25 ng/kg.min N=10): 1 (10)
Severe TEAE Ascites: E (events) ([3]; 1.25 ng/kg.min N=10): 1
Severe TEAE Ascites: N (%) ([3]; 1.25 ng/kg.min N=10): 1 (10)
Severe TEAE Cerebral hemorrhage: E (events) ([3]; 1.25 ng/kg.min N=10): 1
Severe TEAE Cerebral hemorrhage: N (%) ([3]; 1.25 ng/kg.min N=10): 1 (10)
Severe TEAE Disseminated intravascular coagulation: E (events) ([3]; 1.25 ng/kg.min N=10): 1
Severe TEAE Disseminated intravascular coagulation: N (%) ([3]; 1.25 ng/kg.min N=10): 1 (10)
Severe TEAE Hepatic failure: E (events) ([3]; 1.25 ng/kg.min N=10): 1
Severe TEAE Hepatic failure: N (%) ([3]; 1.25 ng/kg.min N=10): 1 (10)
Severe TEAE Hyperkalemia: E (events) ([3]; 1.25 ng/kg.min N=10): 1
Severe TEAE Hyperkalemia: N (%) ([3]; 1.25 ng/kg.min N=10): 1 (10)
Severe TEAE Mechanical ventilation complication: E (events) ([3]; 1.25 ng/kg.min N=10): 1
Severe TEAE Mechanical ventilation complication: N (%) ([3]; 1.25 ng/kg.min N=10): 1 (10)
Severe TEAE Oliguria: E (events) ([3]; 1.25 ng/kg.min N=10): 1
Severe TEAE Oliguria: N (%) ([3]; 1.25 ng/kg.min N=10): 1 (10)
Any severe TEAE: E (events) ([3]; 2.5 ng/kg.min N=19): 6
Any severe TEAE: N (%) ([3]; 2.5 ng/kg.min N=19): 4 (21)
Severe TEAE Myocarditis: E (events) ([3]; 2.5 ng/kg.min N=19): 1
Severe TEAE Myocarditis: N (%) ([3]; 2.5 ng/kg.min N=19): 1 (5)
Severe TEAE Peripheral ischemia: E (events) ([3]; 2.5 ng/kg.min N=19): 1
Severe TEAE Peripheral ischemia: N (%) ([3]; 2.5 ng/kg.min N=19): 1 (5)
Severe TEAE Pneumothorax: E (events) ([3]; 2.5 ng/kg.min N=19): 1
Severe TEAE Pneumothorax: N (%) ([3]; 2.5 ng/kg.min N=19): 1 (5)
Severe TEAE Respiratory distress: E (events) ([3]; 2.5 ng/kg.min N=19): 2
Severe TEAE Respiratory distress: N (%) ([3]; 2.5 ng/kg.min N=19): 2 (11)
Severe TEAE Urinary bladder hemorrhage: E (events) ([3]; 2.5 ng/kg.min N=19): 1
Severe TEAE Urinary bladder hemorrhage: N (%) ([3]; 2.5 ng/kg.min N=19): 1 (5)
Adverse drug reactions judged as serious ([3]; 2.5 ng/kg/minute group, one patient): myocarditis and peripheral ischemia
Any severe TEAE: E (events) ([3]; 3.75 ng/kg.min N=2): 2
Any severe TEAE: N (%) ([3]; 3.75 ng/kg.min N=2): 2 (100)
Severe TEAE Cardio-respiratory arrest: E (events) ([3]; 3.75 ng/kg.min N=2): 1
Severe TEAE Cardio-respiratory arrest: N (%) ([3]; 3.75 ng/kg.min N=2): 1 (50)
Severe TEAE Myocardial ischemia: E (events) ([3]; 3.75 ng/kg.min N=2): 1
Severe TEAE Myocardial ischemia: N (%) ([3]; 3.75 ng/kg.min N=2): 1 (50)
Adverse drug reactions judged as serious ([3]; 3.75 ng/kg/minute group): myocardial ischemia
Cyanosis, treatment-related adverse drug reaction: No. of subjects (%) [3, 5]: 1 (5)
Cyanosis, treatment-related adverse drug reaction: events [3, 5]: 1
Hypertension, treatment-related adverse drug reaction: No. of subjects (%) [3, 5]: 2 (11)
Hypertension, treatment-related adverse drug reaction: events [3, 5]: 2
Myocarditis, treatment-related adverse drug reaction: No. of subjects (%) [3, 5]: 1 (5)
Myocarditis, treatment-related adverse drug reaction: events [3, 5]: 1
Peripheral ischemia, treatment-related adverse drug reaction: No. of subjects (%) [3, 5]: 1 (5)
Peripheral ischemia, treatment-related adverse drug reaction: events [3, 5]: 1
Myocardial ischemia, treatment-related adverse drug reaction: No. of subjects (%) [3, 6]: 1 (50)
Myocardial ischemia, treatment-related adverse drug reaction: events [3, 6]: 1
Tolerability ([3]; selepressin 2.5 ng/kg/minute, septic shock patients): well tolerated
Tolerability (treatment-emergent adverse events vs placebo) ([3]; selepressin dose groups, septic shock patients): well tolerated
Deaths related to ischemic event(s) attributable to selepressin ([3]; septic shock patients, all dose groups): no deaths
Safety and tolerability (healthy subjects): safe and well tolerated
Safety (patients): did not raise any safety concerns
Terminal half-life [4]: 1.5 h
